Test results as given in patent US12392781B2, “Deuterated indole heptamethine cyanine dyes” (University of Notre Dame du Lac, priority 2021, dated 2025).
Entries after “also recorded” stand apart in the source; their conditions may differ.

Legend:
[1] = 20 μg/mL solution in water, 24 hours; cited from earlier work
[2] = Photobleaching under high intensity irradiation (150 W Xenon lamp, 620 nm long-pass filter); details: 6 h irradiation, 1.0 mM or 0.05 mM in water or ethanol, TLC
[3] = Photophysical properties at room temperature (absorption, fluorescence, quantum yield); assay type: physicochemical; details: for λ abs max / λ em max / ε: room temperature; for ε: Beer-Lambert fit 1-5 μM; for ΦF (fluorescence quantum yield): absolute (integrating sphere) for ICG, ICG-d5, ICG-d7, relative to ICG for 1; for Brightness: in M^-1 cm^-1 (unit assumed)
Method: Reagents and solvents were purchased from Sigma-Aldrich, VWR, Oakwood, Thermo Fisher and used without further purification unless stated otherwise. Column chromatography was performed using Biotage Sfär C18 Duo columns (part #FSUD-0401). Reverse- phase thin layer chromatography (TLC) experiments were performed on C18 TLC plates with F254s indicator (MilliporeSigma, part #1.15683). ^1H NMR spectra were recorded on a Bruker 500 NMR spectrometer. Chemical shifts are presented in ppm and referenced by residual solvent peak. High-resolution mass spectrometry (HRMS) was performed using a time-of-flight (TOF) analyzer with electrospray ionization (ESI), with sample dilution in water/acetonitrile as the standard produre. Electronic absorption spectra were recorded on an Evolution 201 UV/vis spectrometer with Thermo Insight software. Fluorescence spectra were collected on a Horiba Fluoromax-4 fluorometer with a maximum detection wavelength of 850 nm. Analyte solutions were prepared on the lab bench (exposed to air and light) using in HPLC grade water (Sigma-Aldrich), dimethylsulfoxide (Sigma-Aldrich), pH 7.4 1× phosphate buffered saline (Thermo Fisher) or fetal bovine serum (Sigma-Aldrich). Stock solutions for spectroscopy studies were prepared and used within 2 hours. All absorption and fluorescence spectra were collected using quartz cuvettes (1 mL, 1 cm path length).
Samples were excited at 730 nm with optical density≤0.05. First, photons were recorded with an integrating sphere after the excitation of a blank solvent reference, then the reference was replaced by a sample solution, and the spectrum (720-875 nm) was acquired again. The quantum yield was calculated by the equation below:
[formula] where P is the number of photons, F is the fluorescence intensity and E is the intensity at the excitation wavelength. Experiments were conducted in triplicate, with the reported absolute quantum yields corresponding to the mean value±standard deviation.
The fluorescence spectrum of each solution was obtained with excitation at 720 nm, and the integrated area was used to calculate the quantum yield according to the following equation:
[formula] where η is the refractive index of the solvent, I is the integrated fluorescence intensity, and A is the absorbance at a chosen wavelength. The estimated error for this method is ±15%.

[4] = cited from earlier work
[5] = Stability of 1.0 mM aqueous stock solutions at room temperature under low photon intensity storage (1H NMR, reverse phase TLC); details: for Stability of stored stock solution, ICG versus ICG-d5 (degradation to oxidative dimer): one week; for Stability of stored stock solution, ICG versus ICG-d5 (degradation to oxidative dimer) / Conversion to oxidative dimer: reverse phase TLC; for Conversion to oxidative dimer: 3-day old 1.0 mM stock solution, primarily in the dark at room temperature
Method: Every day, a 50 μL aliquot was removed from each stock solution, lyophilized, and stored as a solid at −20° C.
At each time point, a 1.0 mL aliquot was taken from the stock solution, the aliquot was lyophilized, the solid residue was dissolved in 0.60 mL of methanol-d4, and a ^1H NMR spectrum was acquired.
The solutions were stored at room temperature and low photon intensity conditions (only exposed to lab lights during sample preparation and when aliquots were removed from samples). After 72 h and 120 h, 1 mL aliquots were taken from each stock solution and lyophilized. In each case, the solid residue was dissolved in 0.6 mL of methanol-d4 and a ^1H NMR spectrum was recorded.
The second set of dye stability experiments were designed to mimic the low photon intensity storage conditions experienced by a typical reconstituted dose in water before it is administered in a clinical setting. Thus, stock solutions of the dyes were exposed to the atmosphere and laboratory lights during the initial reconstitution and periodic sampling, but otherwise stored as capped vials in the dark at room temperature.

[6] = biological target: bovine serum albumin (BSA) (Bos taurus, UniProt P02769); experiment: Bovine serum albumin (BSA) binding by tryptophan fluorescence quenching titration; details: pH 7.4 PBS buffer, 37° C.; for Association constant Ka, titration isotherm fitted to 1:1 model: N=3
Sequence of bovine serum albumin (BSA) (P02769 25-607): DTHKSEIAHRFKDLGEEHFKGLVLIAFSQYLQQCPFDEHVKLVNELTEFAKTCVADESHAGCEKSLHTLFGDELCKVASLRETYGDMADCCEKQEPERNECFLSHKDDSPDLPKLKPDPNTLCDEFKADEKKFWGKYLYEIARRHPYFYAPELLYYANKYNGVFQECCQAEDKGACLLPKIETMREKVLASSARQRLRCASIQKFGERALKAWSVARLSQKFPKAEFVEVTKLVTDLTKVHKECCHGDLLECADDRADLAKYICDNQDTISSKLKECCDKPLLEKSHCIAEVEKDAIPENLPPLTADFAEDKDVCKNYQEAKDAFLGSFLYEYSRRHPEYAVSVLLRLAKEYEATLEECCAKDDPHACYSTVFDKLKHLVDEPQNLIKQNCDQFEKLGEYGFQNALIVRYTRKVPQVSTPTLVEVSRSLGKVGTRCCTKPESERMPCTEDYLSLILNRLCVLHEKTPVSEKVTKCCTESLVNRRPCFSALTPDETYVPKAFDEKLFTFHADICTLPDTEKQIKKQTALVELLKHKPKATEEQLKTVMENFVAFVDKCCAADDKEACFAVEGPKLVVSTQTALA
Method: The titration experiments measured quenching of bovine serum albumin (BSA, 1 mL of 2 μM solution in pH 7.4 PBS buffer) tryptophan fluorescence at 37° C. as dye was added incrementally. A fluorescence spectrum (ex: 280 nm, slit width: 2 nm) was acquired after each dye aliquot was added (2 μL of 1 mM dye stock solutions in water). After each aliquot addition, the solution was mixed and allowed to equilibrate at 37° C. for 5 min before spectral acquisition. Association constants were determined by plotting the change in fluorescence intensity at 345 nm verses molar equivalents using 1:1 binding stoichiometry on the BindFit software. Experiments were done in triplicates. Equations for determining association and dissociation constant are shown below:
[formula] [formula] where F is the fluorescence intensity of tryptophan after adding certain amount of dye, k is the proportionality constant for BSA tryptophan under the experimental condition, Ka is the association constant, [BSA]

[7] = Stability of 1.0 mM aqueous solutions stored at 4° C. in the dark (1H NMR); assay type: physicochemical; details: for Purity of aqueous solution: 1.0 mM
Method: After 7 days and 28 days (separate samples), 1 mL aliquots were taken from each stock solution, the solutions were lyophilized, the solid residue was dissolved in methanol-d4 and ^1H NMR spectra were acquired.
After 7 days and 28 days (separate samples), 1 mL aliquots were taken from each stock solution, the solutions were lyophilized, the solid residue dissolved in methanol-d4 and ^1H NMR spectra were acquired.

[8] = 1.0 mM in water, room temperature, low photon intensity, storage 72 h, 1H NMR
[9] = 1.0 mM in water, room temperature, low photon intensity, storage 120 h, 1H NMR
[10] = 1.0 mM in water, room temperature

Structure (SMILES): CC1(C)C(/C=C/C=C/C=C/C=C2/N(CCCCS(=O)(=O)[O-])c3ccc4ccccc4c3C2(C)C)=[N+](CCCCS(=O)(=O)[O-])c2ccc3ccccc3c21.[Na+] [ICG, Indocyanine Green, reference compound]
- ICG remaining [1]: 20%
- Photostability versus concentration and solvent [2]: 1.0 mM ICG solution in water is more photostable than a 0.05 mM ICG solution in water
- λ abs max ([3]; DMSO): 795 nm
- λ em max ([3]; DMSO): 820 nm
- ε ([3]; DMSO): 224,000 M^−1cm^−1
- ΦF (fluorescence quantum yield) ([3]; DMSO): 16.7 ± 0.6%
- Brightness ([3]; DMSO): 37,000
- λ abs max ([3]; FBS): 800 nm
- λ em max ([3]; FBS): 813 nm
- ε ([3]; FBS): 197,000 M^−1cm^−1
- ΦF (fluorescence quantum yield) ([3]; FBS): 9.7 ± 0.4%
- Brightness ([3]; FBS): 19,000
- Water solubility [4]: 1000 µg/mL
- Effect of H2O2 on formation of oxidative dimer 1 ([5]; 1.0 mM in water, 5 h, H2O2 10 molar equivalents, TLC): higher amount of oxidative dimer 1
- Effect of air and light exposure on formation of oxidative dimer 1 ([5]; 1.0 mM in water, 30 h, room temperature, TLC and NMR): inhibits formation of oxidative dimer 1
- Effect of additives on dimerization to oxidative dimer 1 ([5]; 1 mM in water, additives 10 molar equivalents, 24 h, room temperature, low photon intensity, TLC): promoted by the presence of NaI; also recorded: stopped by base (NaHCO3 and NaOAc), singlet oxygen quencher (NaN3) and reductant (Na2SO3 and Na ascorbate)
- Weight percentage remaining in aqueous stock solution [5, 8]: 73.6 ± 1.7 wt %
- Weight percentage remaining in aqueous stock solution [5, 9]: 67.4 ± 1.0 wt %
- Stability of stored stock solution, ICG versus ICG-d5 (degradation to oxidative dimer) [5, 10]: more degradation
- Dimerization in water versus ethanol ([5]; 1.0 mM, 48 h, room temperature, low photon intensity, TLC): favored in water
- Conversion to oxidative dimer [5]: ~20%
- Degradation to oxidative dimer 1 versus concentration ([5]; water, different concentrations, 72 h, room temperature, low photon intensity, 1H NMR): slower at higher concentrations
- Association constant Ka, titration isotherm fitted to 1:1 model [6]: (3.4±0.5)×10^5 M^−1
- Purity of aqueous solution ([7]; 7 days storage): 85%
- Purity of aqueous solution ([7]; 28 days storage): 52%

Structure (SMILES): [2H]C(=C\C1=[N+](CCCCS(=O)(=O)[O-])c2ccc3ccccc3c2C1(C)C)/C([2H])=C([2H])/C([2H])=C([2H])/C=C1/N(CCCCS(=O)(=O)[O-])c2ccc3ccccc3c2C1(C)C.[Na+] [ICG-d5, Indocyanine Green-d5]
- λ abs max ([3]; DMSO): 793 nm
- λ em max ([3]; DMSO): 819 nm
- ε ([3]; DMSO): 253,000 M^−1cm^−1
- ΦF (fluorescence quantum yield) ([3]; DMSO): 19.8 ± 0.5%
- Brightness ([3]; DMSO): 49,000
- λ abs max ([3]; FBS): 796 nm
- λ em max ([3]; FBS): 813 nm
- ε ([3]; FBS): 205,000 M^−1cm^−1
- ΦF (fluorescence quantum yield) ([3]; FBS): 10.5 ± 0.3%
- Brightness ([3]; FBS): 21,000
- Weight percentage remaining in aqueous stock solution [5, 8]: 86.0 ± 0.8 wt %
- Weight percentage remaining in aqueous stock solution [5, 9]: 80.9 ± 1.2 wt %
- Stability of stored stock solution, ICG versus ICG-d5 (degradation to oxidative dimer) [5, 10]: substantially more stable
- Conversion to oxidative dimer [5]: ~2%
- Association constant Ka, titration isotherm fitted to 1:1 model [6]: (3.8±0.6)×10^5 M^−1
- Purity of aqueous solution ([7]; 7 days storage): 99%
- Purity of aqueous solution ([7]; 28 days storage): 85%
- Stability of stock solution in a refrigerator ([7]; 7 and 28 days): increased stability in a refrigerator

Structure (SMILES): CC1(C)C(=CC=CC=C(C=CC2=[N+](CCCCS(=O)(=O)[O-])c3ccc4ccccc4c3C2(C)C)C(C=CC2=[N+](CCCCS(=O)(=O)[O-])c3ccc4ccccc4c3C2(C)C)=CC=CC=C2N(CCCCS(=O)(=O)O)c3ccc4ccccc4c3C2(C)C)N(CCCCS(=O)(=O)O)c2ccc3ccccc3c21 [compound 1]
- Kd ([6]; fluorescence titration, 2 μM BSA, read-out: Dissociation constant (Kd) of BSA binding): 34 µM
